This is an account of results in patent publication US8178119B2, “Method for the acaricidal finishing of textile materials” (Sanitized AG, priority 2004, dated 2012).

What all share (assay type): in vivo
Assay [1] deals with Dermatophagoides pteronyssinus. The experiment in a line: Method 2: AFNOR NF G 39-011 test, reduction in number of mites after six weeks versus non-finished control. The note with it: cotton/polyester mattress ticking. How it is done: (§1) The textile sample is cut to a size of 8×8 cm and placed on a glass plate of the same size. About 50 house dust mites in the adult stage, which were counted under the microscope, were placed in the center of the sample. Other stages were likewise present of course but are not counted. Some food (see method 2) is added. A 5 mm thick rubber plate with a 30 mm diameter hole in the middle is placed on the sample. The hole is covered from the top with a filter paper, and a metal plate with a hole in the middle is placed on the filter paper such that the hole is congruently positioned above the hole in the rubber plate. The sample plates thus prepared are fixed with clips and are then incubated for 6 or 8 weeks in an incubator at saturated humidity at 25° C. […] In this method, the change in the number of mites compared with the initial value is calculated. The test is carried out in duplicate. • 2. The AFNOR NF G 39-011 test method, as carried out for example by TEC Laboratory, […], again utilizes 50 adult house dust mites, Dermatophagoides pteronyssinus, per test sample, which come from a stock culture from INRA Bordeaux and were bred for several years at 76% humidity at 25° C. in the complete absence of insecticides. The mites were fed on a mixture of wheat germ and brown brewer's yeast. The test is carried out at 17 to 23° C. The test duration is six weeks, and the mites are counted after they were driven out by application of heat. The test is carried out in quadruplicate. The reduction in the number of mites after six weeks compared with a non-finished control sample is determined.

In assay [2] the test system is house dust mites. The experiment in a line: Effect against house dust mites, method not stated (one of the two methods). The note with it: for growth in the population of mites by a factor: control factor 2.6; for cuts in the number of mites: without zinc pyrithione, at concentrations normally used for antimicrobial finishing, reduction to zero mites not quite achieved. An excerpt: On polyurethane foams based on polyester polyol, 2000 ppm of zinc pyrithione allowed a growth in the population of mites by a factor of 1.6, which is only insignificantly less than the corresponding control sample at a factor of 2.6. In the case of plasticized PVC, even 3000 ppm of zinc pyrithione allowed a growth in the population of mites by a factor of 1.4, while the PVC control sample returned a growth of again by a factor of 2.6. Both values are insufficient for the protection of the finished articles against colonization by mites, but they do form the basis for enhancement of the protection without the complete effect having to be supplied by the other active, permethrin for example.
Testing of the effect against house dust mites was carried out in the experiments according to one of the two methods described hereinbelow: • 1. The textile sample is cut to a size of 8×8 cm and placed on a glass plate of the same size. About 50 house dust mites in the adult stage, which were counted under the microscope, were placed in the center of the sample. Other stages were likewise present of course but are not counted. Some food (see method 2) is added. A 5 mm thick rubber plate with a 30 mm diameter hole in the middle is placed on the sample. The hole is covered from the top with a filter paper, and a metal plate with a hole in the middle is placed on the filter paper such that the hole is congruently positioned above the hole in the rubber plate. The sample plates thus prepared are fixed with clips and are then incubated for 6 or 8 weeks in an incubator at saturated humidity at 25° C. After the period of 6 or 8 weeks, the living adult mites were again counted under the microscope. In this method, the change in the number of mites compared with the initial value is calculated. The test is carried out in duplicate. • 2. The AFNOR NF G 39-011 test method, as carried out for example by TEC Laboratory, F-64600 Anglet, again utilizes 50 adult house dust mites, Dermatophagoides pteronyssinus, per test sample, which come from a stock culture from INRA Bordeaux and were bred for several years at 76% humidity at 25° C. in the complete absence of insecticides. The mites were fed on a mixture of wheat germ and brown brewer's yeast. The test is carried out at 17 to 23° C. The test duration is six weeks, and the mites are counted after they were driven out by application of heat. The test is carried out in quadruplicate. The reduction in the number of mites after six weeks compared with a non-finished control sample is determined.

Assay [3] has as its system house dust mites. The experiment in a line: Method 1: live adult house dust mites counted on the textile sample after 6 or 8 weeks, change versus initial value. How it is done:
as §1

As for zinc pyrithione, in assay [1] (Example 5: 1.0% of formulation comprising 15% zinc pyrithione with 3% to 5% acrylate copolymers), the “mite inhibition rate (MIR) compared with the non-finished control fabric, average” value came to 99.3%. The “mites on samples after the test” value in assay [1] (Example 5: 1.2% of formulation comprising 15% zinc pyrithione with 3% to 5% acrylate copolymers) and in assay [1] (Example 5: 1.5% of formulation comprising 15% zinc pyrithione with 3% to 5% acrylate copolymers) was “completely free of mites” throughout. The “growth in the population of mites by a factor” value in the assay on house dust mites [2] (plasticized PVC, 3000 ppm of zinc pyrithione) came out at 1.4; in the assay on house dust mites [2] (polyurethane foams based on polyester polyol, 2000 ppm of zinc pyrithione), 1.6. Moreover, the “live mites on samples after the test” value was “no longer any live mites” in the assay on house dust mites [3] (Example 3: 1.0% of aqueous dispersion comprising 15% zinc pyrithione padded with 3% NUVA TTC or 4% NUVA HPU or 4% NUVA HPC onto cotton, polyester or polyamide, cured 150° C. 90 seconds); “no longer any live mites” in the assay with house dust mites [3] (Example 6: 0.4% of aqueous formulation comprising 48% zinc pyrithione padded with wetting agent and nonionized surfactant onto woven cotton, dried 180° C. 1 minute).

For `CCCCCCCCn1sccc1=O` [2-n-octylisothiazolin-3-one], the “cuts in the number of mites” value in the assay with house dust mites [2] is “fairly good cuts in the number of mites”.

Turning to `Oc1cc(Cl)ccc1Oc1ccc(Cl)cc1Cl` [triclosan], the “cuts in the number of mites” value with house dust mites [2] is “fairly good cuts in the number of mites”. In addition, the “reduction in the number of live mites, average” value with house dust mites [3] (Example 11: 1000 ppm on cotton, 6 weeks, control growth rate 273%) is recorded as 57%. For the same compound, the “reduction in the number of live mites” value in the assay with house dust mites [3] (Example 11: 1400 ppm on polyester furniture covering fabric, 6 weeks, control growth rate 273%) is 38%.
